Test results as given in patent US11242337B2, “Compounds useful for treating gastrointestinal tract disorders” (Ardelyx, Inc., priority 2017, dated 2022).

Experiments:
[1] = tested on: human duodenum monolayer culture; assay: Sustained inhibition of apical acid secretion in human organoid monolayer cell cultures (duodenum); format: cell-based; details: 1 μM apical, inhibition of apical acid secretion vs DMSO
Experimental: Basal media (BM) consisted of advanced DMEM/F12 containing 10 mM HEPES Invitrogen, 15630-080), 1:100 Glutamax (Invitrogen, 35050-061), and 1:100 penicillin/streptomycin (Invitrogen, 15140-122). Supplemented basal media (SBM) contained 1:100 N2 (Invitrogen, 17502-048), 1:50 B27 (Invitrogen, 12587-010), 1 mM N-acetylcysteine (Sigma, A9165), and 10 nM [Leu15]-gastrin I (Sigma, G9145). Growth factors used included 50 ng per mL mouse EGF (Peprotech, 315-09), 100 ng per mL mouse noggin (Peprotech, 250-38), 500 ng per mL human R-spondin 1 (R&D, 4645-RS), 100 ng per mL mouse Wnt-3a (R&D, 1324-WN), 20 μM. Y-27632 (Tocris, 1254), 10 mM nicotinamide (Sigma, N0636), 500 nM A83-01 (Tocris, 2939), 10 μM SB202190 (Tocris, 1264). Transwells were 0.4 μm pore polyester membrane 24-well Transwell inserts (Corning). Cultures were incubated at 37° C. in 5% CO2.
Each human ileum monolayer culture well was washed twice with fresh SBM on the apical side on day 6 before compound dosing. All compound stocks were 10 mM dissolved in DMSO. Each compound stock was individually mixed with fresh SBM to reach final compound concentration 1 μM and dosed only on the apical side of the monolayer (total volume 200 μl). DMSO at the equivalent concentration was used as the vehicle control. Duplicate wells were dosed for each compound. On day 8, apical media pH was measured by pH electrode, to determine the ability of example compounds to produce sustained inhibition of NHE3 activity in a human monolayer culture system by preventing proton secretion into the apical compartment.
Human duodenum organoids were cultured in WENRNAS (Wnt, EGF, noggin, R-spondin1, Nicotinamide, A83-01, SB202190) and typically grown for 7-12 days before being used to plate monolayer cultures. On day 0, organoid cultures embedded in Matrigel were treated with TrypLE Express to break organoids into small pieces and/or single cells. The cells were resuspended to 0.5×10^6 cells/mL in SBM containing WENRAY (Wnt, EGF, noggin, R-spondin1, A83-01, Y-27632). Following this step, 200 μL of cell suspension was plated into the apical side of a 24-well Transwell (100,000 cells/well) and 600 μL of SBM with WENRAY was added to the basolateral side. Duodenum cells were differentiated with ENA (EGF, noggin, A83-01) on day 3. The color of apical compartment turns from pink or orange to yellow due to the increase in NHE3 expression after differentiation.

NHE3 = molecular target: T1, NHE3 (Homo sapiens, UniProt P48764); assay: Cell-based assay of NHE-3 activity (pre-incubation inhibition), human; details: human Preincubation; for pIC50: 0-30 μM test compound
T1 construct: expressed in transfected cells
T1 sequence (P48764 26-834): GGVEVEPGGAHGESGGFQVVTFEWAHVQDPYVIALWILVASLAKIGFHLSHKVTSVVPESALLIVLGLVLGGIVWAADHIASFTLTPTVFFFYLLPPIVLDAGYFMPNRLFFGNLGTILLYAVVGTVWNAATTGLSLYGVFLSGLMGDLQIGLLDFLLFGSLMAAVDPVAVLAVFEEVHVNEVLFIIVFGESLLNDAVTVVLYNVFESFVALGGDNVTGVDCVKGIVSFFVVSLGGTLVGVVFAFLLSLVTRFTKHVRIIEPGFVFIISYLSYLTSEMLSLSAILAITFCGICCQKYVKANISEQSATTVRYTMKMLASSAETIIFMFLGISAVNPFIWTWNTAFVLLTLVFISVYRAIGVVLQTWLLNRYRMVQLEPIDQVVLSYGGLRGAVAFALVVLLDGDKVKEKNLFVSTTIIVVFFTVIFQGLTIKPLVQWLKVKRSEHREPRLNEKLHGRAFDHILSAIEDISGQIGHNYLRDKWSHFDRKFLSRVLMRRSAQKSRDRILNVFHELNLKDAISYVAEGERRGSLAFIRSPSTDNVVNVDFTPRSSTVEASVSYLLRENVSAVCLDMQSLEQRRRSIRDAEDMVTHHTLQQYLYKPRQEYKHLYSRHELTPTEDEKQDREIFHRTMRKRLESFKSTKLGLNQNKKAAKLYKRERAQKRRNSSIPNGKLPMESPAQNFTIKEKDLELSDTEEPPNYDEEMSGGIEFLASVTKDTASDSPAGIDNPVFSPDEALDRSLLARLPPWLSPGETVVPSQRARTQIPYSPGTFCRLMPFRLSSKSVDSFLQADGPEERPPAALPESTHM
T1 sequence (Q99653 2-195 partner limits assumed): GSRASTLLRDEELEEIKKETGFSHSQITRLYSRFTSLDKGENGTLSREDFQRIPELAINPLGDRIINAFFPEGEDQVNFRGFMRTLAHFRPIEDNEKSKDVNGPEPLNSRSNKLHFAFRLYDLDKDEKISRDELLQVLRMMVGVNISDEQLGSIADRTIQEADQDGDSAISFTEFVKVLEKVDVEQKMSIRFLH
Method in brief: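 Activity read as initial rate of BCECF fluorescence ratio change per minute (ex 439/505, em 538 nm) following NH4Cl prepulse acid loading. Compound (0–30 μM) present during 10 min Na+-free acidification at room temperature; cells were PS120 fibroblasts stably co-expressing human NHE3 and NHERF2.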

Compound	% inhibition (NHE3)	pIC50 (NHE3)	% inhibition (duodenum) [1]
3-[2-(2-[2-[(4-[[(1S,2S)-4,6-Dichloro-2-[(3R)-3-[methyl(propan-2-yl)amino]piperidin-1-yl]-2,3-dihydro-1H-inden-1-yl]oxy]benzene) sulfonamido]ethoxy]ethoxy)ethyl]-1-[4-([[2-(2-[2-[(4-[[(1S,2S)-4,6-dichloro-2-[(3R)-3-[methyl(propan-2-yl)amino]piperidin-1-yl]-2,3-dihydro-1H-inden-1-yl]oxy]benzene)sulfonamido]ethoxy]ethoxy)ethyl]carbamoyl]amino)butyl]urea; bis(trifluoroacetic acid) [Example 78]	C (>70%)	–	C (>70%)
Cc1cc(Cl)cc2c1C[C@H](N1CCC[C@@H](N(C)C)C1)[C@H]2Oc1ccc(S(=O)(=O)NCCOCCOCCNC(=O)NCCCCNC(=O)NCCOCCOCCNS(=O)(=O)c2ccc(O[C@H]3c4cc(Cl)cc(C)c4C[C@@H]3N3CCC[C@@H](N(C)C)C3)c(F)c2)cc1F [Example 30, 3-[2-(2-[2-[(4-[[(1S,2S)-6-Chloro-2-[(3R)-3-(dimethylamino)piperidin-1-yl]-4-methyl-2,3-dihydro-1H-inden-1-yl]oxy]-3-fluorobenzene)sulfonamido]ethoxy]ethoxy)ethyl]-1-[4-([[2-(2-[2-[(4-[[(1S,2S)-6-chloro-2-[(3R)-3-(dimethylamino)piperidin-1-yl]-4-methyl-2,3-dihydro-1H-inden-1-yl]oxy]-3-fluorobenzene)sulfonamido]ethoxy]ethoxy)ethyl]carbamoyl]amino)butyl]urea; bis(trifluoroacetic acid)]	C (>70%)	C (NHE3 pIC50 > 7)	–
Cc1cc(S(=O)(=O)N[C@@H]2CCN(CCOCCNC(=O)NCCCCNC(=O)NCCOCCN3CC[C@@H](NS(=O)(=O)c4ccc(O[C@H]5c6cc(Cl)cc(Cl)c6C[C@@H]5N(C)C)c(C)c4)C3)C2)ccc1O[C@H]1c2cc(Cl)cc(Cl)c2C[C@@H]1N(C)C [Example 53, 3-(2-[2-[(3R)-3-[(4-[[(1S,2S)-4,6-Dichloro-2-(dimethylamino)-2,3-dihydro-1H-inden-1-yl]oxy]-3-methylbenzene)sulfonamido]pyrrolidin-1 yl]ethoxy]ethyl)-1-(4-[[(2-[2-[(3R)-3-[(4-[[(1S,2S)-4,6-dichloro-2-(dimethylamino)-2,3-dihydro-1H-inden-1-yl]oxy]-3-methylbenzene)sulfonamido]pyrrolidin-1-yl]ethoxy]ethyl)carbamoyl]amino]butyl)urea]	C (>70%)	C (NHE3 pIC50 > 7)	–
Cc1cc(O[C@H]2c3cc(Cl)cc(Cl)c3C[C@@H]2N(C)C)c(F)cc1S(=O)(=O)NCCOCCOCCNC(=O)NCCCCNC(=O)NCCOCCOCCNS(=O)(=O)c1cc(F)c(O[C@H]2c3cc(Cl)cc(Cl)c3C[C@@H]2N(C)C)cc1C [Example 88, 3-[2-(2-[2-[(4-[[(1S,2S)-4,6-Dichloro-2-(dimethylamino)-2,3-dihydro-1H-inden-1-yl]oxy]-5-fluoro-2-methylbenzene)sulfonamido]ethoxy]ethoxy)ethyl]-1-[4-([[2-(2-[2-[(4-[[(1S,2S)-4,6-dichloro-2-(dimethylamino)-2,3-dihydro-1H-inden-1-yl]oxy]-5-fluoro-2-methylbenzene)sulfonamido]ethoxy]ethoxy)ethyl]carbamoyl]amino)butyl]urea]	C (>70%)	C (NHE3 pIC50 > 7)	–

Continued, in another order:

% inhibition (NHE3)	pIC50 (NHE3)	Compound	% inhibition (duodenum) [1]
C (>70%)	C (NHE3 pIC50 > 7)	N#Cc1cc(Cl)cc2c1C[C@H](N1CCNCC1)[C@H]2Oc1ccc(S(=O)(=O)N2CCC(NC(=O)CCCNC(=O)NCCCCNC(=O)NCCCC(=O)NC3CCN(S(=O)(=O)c4ccc(O[C@H]5c6cc(Cl)cc(C#N)c6C[C@@H]5N5CCNCC5)cc4)CC3)CC2)cc1 [Example 120, N^1,N^18-Bis(1-([4-([(1S,2S)-6-chloro-4-cyano-2-(piperazin-1-yl)-2,3-dihydro-1H-inden-1-yl]oxy)phenyl]sulfonyl)piperidin-4-yl)-6,13-dioxo-5,7,12,14-tetraazaoctadecanediamide]	–
C (>70%)	C (NHE3 pIC50 > 7)	C[C@@H]1CN([C@H]2Cc3c(C#N)cc(Cl)cc3[C@@H]2Oc2ccc(S(=O)(=O)N[C@H]3CCN(CCOCCNC(=O)NCCCCNC(=O)NCCOCCN4CC[C@H](NS(=O)(=O)c5ccc(O[C@H]6c7cc(Cl)cc(C#N)c7C[C@@H]6N6CCN[C@H](C)C6)cc5)C4)C3)cc2)CCN1 [Example 132, 4-([(1S,2S)-6-Chloro-4-cyano-2-[(R)-3-methylpiperazin-1-yl]-2,3-dihydro-1H-inden-1-yl]oxy)-N—[(S)-1-(20-[(S)-3-([4-([(1S,2S)-6-chloro-4-cyano-2-[(R)-3-methylpiperazin-1-yl]-2,3-dihydro-1H-inden-1-yl]oxy)phenyl]sulfonamido)pyrrolidin-1-yl]-7,14-diaxo-3,18-dioxa-5,8,13,15-tetraazaicosyl)pyrrolidin-3-yl]benzenesulfonamide; bis(trifluoroacetic acid)]	–
C (>70%)	C (NHE3 pIC50 > 7)	C[C@@H]1CN([C@H]2Cc3c(C#N)cc(Cl)cc3[C@@H]2Oc2ccc(S(=O)(=O)N[C@@H]3CCN(CCOCCNC(=O)NCCCCNC(=O)NCCOCCN4CC[C@@H](NS(=O)(=O)c5ccc(O[C@H]6c7cc(Cl)cc(C#N)c7C[C@@H]6N6CCN[C@H](C)C6)cc5)C4)C3)cc2)CCN1 [Example 133, 4-([(1S,2S)-6-Chloro-4-cyano-2-[(R)-3-methylpiperazin-1-yl]-2,3-dihydro-1H-inden-1-yl]oxy)-N—[(R)-1-(20-[(R)-3-([4-([(1S,2S)-6-chloro-4-cyano-2-[(R)-3-methylpiperazin-1-yl]-2,3-dihydro-1H-inden-1-yl]oxy)phenyl]sulfonamido)pyrrolidin-1-yl]-7,14-dioxo-3,18-dioxa-6,8,13,15-tetraazaicosyl)pyrrolidin-3-yl]benzenesulfonamide; bis(trifluoroacetic acid)]	–
C (>70%)	C (NHE3 pIC50 > 7)	N#Cc1cc(Cl)cc2c1C[C@H](N1CCNCC1)[C@H]2Oc1ccc(S(=O)(=O)N[C@H]2CCN(C(=O)CCCNC(=O)NCCCCNC(=O)NCCCC(=O)N3CC[C@H](NS(=O)(=O)c4ccc(O[C@H]5c6cc(Cl)cc(C#N)c6C[C@@H]5N5CCNCC5)cc4)C3)C2)cc1 [Example 143, 4-([(1S,2S)-6-Chloro-4-cyano-2-(piperazin-1-yl)-2,3-dihydro-1H-inden-1-yl]oxy)-N—[(S)-1-(18-[(S)-3-([4-([(1S,2S)-6-chloro-4-cyano-2-(piperazin-1-yl)-2,3-dihydro-1H-inden-1-yl]oxy)phenyl]sulfonamido)pyrrolidin-1-yl]-6,13,18-trioxo-5,7,12,14-tetraazaoctadecanoyl)pyrrolidin-3-yl]benzenesulfonamide]	–
